These results are taken from article PMC12193579, “Pro-Apoptotic Activity of 1-(4,5,6,7-Tetrabromo-1H-benzimidazol-1-yl)propan-2-one, an Intracellular Inhibitor of PIM-1 Kinase in Acute Lymphoblastic Leukemia and Breast Cancer Cells” (International Journal of Molecular Sciences, 2025).

Holding throughout (format): cell-based, human
Assay [1] deals with CK2 in CCRF-CEM cells (Ser529 in NF-κB p65). The assay can be described thus: PhosFlow analysis of NF-κB p65 Ser529 phosphorylation, CCRF-CEM. Conditions: 16 µM, 24 h. The method, then: CCRF-CEM cells were prepared following the BD PhosFlow™ Protocol for Human PBMCs using NF-κB p65 (pS529)-PE (#558423), BD PhosFlow™ Perm Buffer III (#558050), Cytofix Fixation Buffer (#554655), and Stain Buffer FBS (#554656), all obtained from Becton Dickinson. Flow cytometric analysis was performed using a BD Accuri C6 Plus cytometer (Becton Dickinson) according to the manufacturer’s instructions.

Assay [2] has as its system CCRF-CEM cells. The assay can be described thus: cell cycle progression by flow cytometry, CCRF-CEM. Conditions: 16 µM, 48 h. The method, then: Since CK2 and PIM kinases regulate cell cycle progression, their inhibition may alter the distribution of cells across different cell cycle phases. […] For control cells, the percentage of G2/M cells was 17%. In addition to those changes, we observed cells in the sub-G1 phase, which are apoptotic cells. Accumulation of cells in this phase reflects DNA degradation characteristic of apoptotic cells. The largest percentage of these cells, i.e., 32% was determined in 16 µM 1-treated cells (Figure 6a,b).
(§1) CCRF-CEM and MCF-7 cells were cultured in 6-well plates and treated with the tested compounds for 48 h. After exposure to the compounds, the cells were collected, washed with cold PBS, and fixed in 70% ethanol at –20 °C for at least 24 h. Subsequently, the cells were washed in PBS and stained according to the procedure previously described by our group. The cellular DNA content was measured by flow cytometry using a BD Accuri C6 Plus flow cytometer (BD Biosciences, San Jose, CA, USA). The resulting DNA histograms were analyzed with BD Accuri C6 Plus software (San Diego, CA, USA) to assess the distribution of cells across different phases of the cell cycle.

In assay [3] the test system is CK2 in MCF-7 cells (Ser529 in NF-κB p65). The assay can be described thus: Western blot of phosphorylated p65 (Ser529), intracellular CK2 inhibition, MCF-7. Conditions: 8 µM, 24 h, untreated cells = 1. As to the method:
(§2) After 24 h of treatment, we assessed site-specific phosphorylation of Ser529 in NF-κB p65 and Ser112 in BAD—a marker of PIM kinase activity—using Western blot analysis (Figure 8). The data for BAD confirmed intracellular inhibition of this kinase by the tested compounds in both cell lines in a dose-dependent manner. A statistically significant decrease in phosphorylated BAD was observed following treatment with 16 µM of compound 1, with relative protein levels reduced to 0.48 and 0.46 in CCRF-CEM and MCF-7 cells, respectively (Figure 8a–c).
(§3) Exponentially growing CCRF-CEM or MCF-7 cells were seeded at a density of 6 × 10^5 cells per 6 cm dish. Compounds were then added, with a final DMSO concentration of 0.5%. Cell lysates were prepared as previously described. The ECL substrate was used for signal detection, and the immunoblots were scanned using a G:BOX Chemi imaging system (Syngene, Cambridge, UK) equipped with GeneSys software, Version 1.4.3.0 (Syngene, Cambridge, UK).
(§4) For densitometric analysis, immunoblots were scanned using the G:BOX Chemi system (Syngene), and the band intensities of phosphorylated and total proteins were quantified with GeneSys software (Syngene, Cambridge, UK). The levels of phosphorylated proteins were normalized to GAPDH, with the value for untreated cells set to 1, and subsequently expressed as a percentage relative to the appropriate control.
A general note: In western blotting, separated proteins are transferred to a membrane and probed.

The test system of assay [4] is MCF-7 cells. The experiment in a line: cell cycle progression by flow cytometry, MCF-7. Conditions: 48 h. The method, then:
Additionally, we observed the prolongation of G2/M in MCF-7 treated with 1 at the highest concentration. […] 1 induced G2/M phase arrest in MCF-7 with the highest effect detected for the 16 µM concentration, manifested as 32% cells in that stage, whereas in the control, the percentage of G2/M cells was 22%.
as §1
On the technique in general: A flow cytometer gives signals particle by particle.

Assay [5] deals with CK2 in CCRF-CEM cells (Ser529 in NF-κB p65). The experiment in a line: Western blot of phosphorylated p65 (Ser529), intracellular CK2 inhibition, CCRF-CEM. Conditions: 16 µM, 24 h, untreated cells = 1. As to the method:
as §2, §3, §4

Assay [6] concerns CCRF-CEM cells. The experiment in a line: annexin V/propidium iodide apoptosis, flow cytometry, CCRF-CEM. Conditions: 48 h, annexin V binding. As to the method: The results obtained for CCRF-CEM and MCF-7 are shown in Figure 3 and Figure 4, respectively. […] 1, 79.6% of cells were apoptotic.
CCRF-CEM cells were seeded in 24-well plates at a density of 2 × 10^5 cells/mL. The cells were treated with the tested compounds at concentrations of 8, 16, and 32 µM, followed by incubation for 48 h. After treatment, the cells were harvested and processed according to the previously described protocol. Flow cytometric measurements were conducted within 1 h of cell labeling. Viable, necrotic, early apoptotic, and late apoptotic cells were identified using a BD Accuri C6 Plus flow cytometer and analyzed with BD Accuri C6 Plus software, version 1.0.34.1 (BD Biosciences, San Jose, CA, USA).

For assay [7], the system named is caspase-3 in CCRF-CEM cells. The experiment in a line: caspase-3 activation, flow cytometry, CCRF-CEM. Conditions: 16 µM, 24 h. As to the method: Since caspase-3 is a key protease activated in the early stages of apoptosis, we next investigated whether apoptosis in CCRF-CEM cells is mediated through caspase-3 activation. Both cpd. […] 1. The results are consistent with the previously observed pro-apoptotic properties of derivative 1.
Caspase-3 activity was measured using the FITC Active Caspase-3 Apoptosis Kit (BD Pharmingen, San Jose, CA, USA) according to the manufacturer’s instructions. The stained cells were measured with a BD Accuri C6 Plus flow cytometer.

In assay [8] the test system is PIM-1 kinase in CCRF-CEM cells (Ser112 in BAD). The assay can be described thus: Western blot of phosphorylated BAD (Ser112), marker of PIM kinase activity, CCRF-CEM. Conditions: 16 µM, 24 h, untreated cells = 1. The method, then: as §2, §3, §4
For assay [9], the system named is MCF-7 cells. The experiment in a line: mitochondrial membrane potential (ΔΨm) JC-1 assay, MCF-7. Conditions: 48 h. The method, then:
(§5) The mitochondrial membrane potential was evaluated by flow cytometry using 5,5′,6,6′-tetrachloro-1,1′,3,3′-tetraethylbenzimidazolocarbocyanine iodide (JC-1; Sigma-Aldrich), as previously described.

Assay [10] relates to CCRF-CEM cells. The experiment in a line: mitochondrial membrane potential (ΔΨm) JC-1 assay, CCRF-CEM. Conditions: 48 h. As to the method: as §5

For `CC(=O)Cn1cnc2c(Br)c(Br)c(Br)c(Br)c21` [compound 1, 1-(4,5,6,7-tetrabromo-1H-benzimidazol-1-yl)propan-2-one], the “p65-P-negative CCRF-CEM cells” value in assay [1] amounted to 29%. In addition, the “CCRF-CEM cells in the sub-G1 phase” value with CCRF-CEM cells [2] is given as 32%. The “CCRF-CEM cells in the G2/M phase” value in the assay with CCRF-CEM cells [2] (control 17%) is on record as 10%. For the same molecule, in the assay with CCRF-CEM cells [2] (control 33%), the “CCRF-CEM cells in the S phase” value worked out at 20%. In addition, in [3], the “relative level of p65-P (Ser529), MCF-7” value is reported as 0.84. For the same molecule, the “MCF-7 cells in the S phase” value in the assay on MCF-7 cells [4] (8 µM, control 17%) is given as 11%. In addition, in the assay on MCF-7 cells [4] (16 µM, control 22%), the “MCF-7 cells in the G2/M phase” value amounted to 32%. Moreover, the “relative level of phosphorylated p65 (Ser529), CCRF-CEM” value in [5] is 0.46. Moreover, the “apoptotic CCRF-CEM cells” value in the assay with CCRF-CEM cells [6] (8 µM) was 23.5%; with CCRF-CEM cells [6] (16 µM), 79.6%; in the assay on CCRF-CEM cells [6] (32 µM), roughly 98%. Moreover, in assay [7], the “CCRF-CEM cells with the active caspase-3” value came to 60%. In addition, the “relative level of phosphorylated BAD (Ser112), CCRF-CEM” value in [8] came to 0.48. In addition, the “MCF-7 cells with reduced ΔΨm” value in the assay on MCF-7 cells [9] (16 µM) is recorded as 26%; in the assay on MCF-7 cells [9] (32 µM), 19%. Besides, the “CCRF-CEM cells with reduced ΔΨm” value was 76% with CCRF-CEM cells [10] (16 µM) and 99.4% in the assay on CCRF-CEM cells [10] (32 µM).
